One series addresses CIMPR (Homo sapiens, UniProt P11717). The series can be described thus: CIMPR affinity chromatography (bound vs unbound rhGAA by GAA activity). It counts as binding. From the text:
Multiple batches of the rhGAA according to the disclosure were produced in shake flasks and in perfusion bioreactors using CHO cell line GA-ATB200, the product of which is referred to as “ATB200.” Weak anion exchange (“WAX”) liquid chromatography was used to fractionate ATB200 rhGAA according to terminal phosphate and sialic acid. Elution profiles were generated by eluting the ERT with increasing amount of salt. The profiles were monitored by UV (A280 nm).
To evaluate the ability of the conventional rhGAAs in MYOZYME® and LUMIZYME® to interact with the CIMPR, the two conventional rhGAA preparations were injected onto a CIMPR affinity column (which binds rhGAA having M6P groups) and the flow through collected. The bound material was eluted with a free M6 gradient. Fractions were collected in 96-well plate and GAA activity assayed by 4MU-α-glucosidase substrate. The relative amounts of unbound (flow through) and bound (M6P eluted) rhGAA were determined based on GAA activity and reported as the fraction of total enzyme. […] Indeed, only 27% of the rhGAA in MYOZYME® and 22% of the rhGAA in LUMIZYME® contained M6P that can be productive to target it to the CIMPR on muscle cells.

The test system of series [1] is Gaa KO mice. Description: Single fiber analysis (LAMP1/LC3) of muscle fibers from Gaa KO mice. Format: in vivo. An excerpt:
FIG. 17 depicts co-immunofluorescent staining of LAMP1 (green) (see for example, “B”) and LC3 (red) (see, for example, “A”) in single fibers isolated from the white gastrocnemius of Gaa KO mice treated with a vehicle, alglucosidase alfa, or ATB200. “C” depicts clearance of autophagic debris and absence of enlarged lysosome. A minimum of 30 fibers were examined from each animal.
As a result, a significant portion of muscle fibers analyzed (36-60%) from ATB200-treated mice appeared normal or near-normal.

Another series deals with pediatric LOPD patient. Conditions: (failed); 20 mg/kg Q2W (M).
For series [2], the system named is Gaa KO mice. The series can be described thus: Co-administration of ATB200 and miglustat in Gaa KO mice (tissue glycogen, LAMP1, LC3, dysferlin). It counts as in vivo. The note with it: FIG. 15B. The procedure:
The therapeutic effects of ATB200 and miglustat were evaluated and compared against those of Alglucosidase alfa in Gaa KO mice. For the study, male Gaa KO (3- to 4-month old) and age-matched wild-type (WT) mice were used. Alglucosidase alfa was administered via bolus tail vein intravenous (IV) injection. In the co-administration regimen, miglustat was administered via oral gavage (PO) 30 minutes prior to the IV injection of ATB200. Treatment was given biweekly. Treated mice were sacrificed after 14 days from the last administration and various tissues were collected for further analysis. Table 11 summarizes the study design:
Tissue glycogen content in tissues samples was determined using amyloglucosidase digestion, as discussed above.
Tissue samples were also analyzed for biomarker changes following the methods discussed in: Khanna R, et al. (2012), “The pharmacological chaperone AT2220 increases recombinant human acid α-glucosidase uptake and glycogen reduction in a mouse model of Pompe disease,” Plos One 7(7): e40776; and Khanna, R et al. (2014), “The Pharmacological Chaperone AT2220 Increases the Specific Activity and Lysosomal Delivery of Mutant Acid α-Glucosidase, and Promotes Glycogen Reduction in a Transgenic Mouse Model of Pompe Disease,” PLOS ONE 9(7): e102092.

The test system of series [3] is LOPD population (ERT-naïve and ERT-experienced). The series can be described thus: Indirect treatment comparison, multi-level network meta regression (ML-NMR). Conditions: base-case scenario, sensitivity analysis (RCT data only). More on the design: species or system human. The procedure: Moreover, a comparison of three randomized clinical trials (LOTS: alglucosidase alfa vs placebo; COMET: avalglucosidase alfa vs alglucosidase alfa; and PROPEL: cipaglucosidase alfa/miglustat vs alglucosidase alfa) share 6 MWD and % predicted FVC as key primary or secondary endpoints. Using patient-level data from the PROPEL randomized clinical trial (RCT) plus aggregate published data from other RCTs, Phase I/II and open label extension trials, a multi-level network meta-regression was conducted, adjusting for various baseline covariates including previous ERT duration. The base case scenario had covariates resembling the PROPEL population (naïve and ERT-experienced) and analyzed 6 MWD and FVC change from baseline at 52 weeks. […]
A systematic literature review (SLR) was conducted to identify relevant published clinical studies of ERTs in LOPD. Outcomes assessed were change from baseline in 6-minute walking distance (6 MWD) (m) and in forced vital capacity (FVC; % predicted) at week 52, acknowledged by clinicians, HTA agencies and payers as key LOPD trial endpoints. […]
A base-case scenario was evaluated in which all covariates were set to the target population of the PROPEL trial. […]

The test system of series [4] is adult subjects with late-onset Pompe disease (LOPD). Conditions: in vivo.
Text: (§1) Efficacy assessments (i.e., functional assessments) included evaluation of ambulatory function (6 MWT), motor function tests (Gait, Stair, Gower, and Chair maneuver (GSGC) test and Timed Up and Go (TUG) test), muscle strength (manual muscle testing and quantitative muscle testing), and pulmonary function tests (FVC, SVC, MIP, MEP, and SNIP).
(§2) The primary efficacy endpoint was the change from baseline to Week 52 in 6 MWD.
(§3) Key secondary efficacy endpoints in a pre-specified hierarchical order of importance were as follows. These secondary endpoints were analyzed using analysis of covariance (ANCOVA) model with last observation carried forward (ITT LOCF). • change from baseline to Week 52 in sitting FVC (% predicted) • change from baseline to Week 52 in the manual muscle test score for the lower extremities • change from baseline to Week 52 in the total score for the PROMIS—physical function • change from baseline to Week 52 in the total score for the PROMIS—fatigue • change from baseline to Week 52 in GSGC total score
(§4) PROPEL was a 52-week, double-blind randomized global study designed to assess the efficacy, safety and tolerability of AT-GAA compared to the current standard of care, alglucosidase alfa, an enzyme replacement therapy (ERT).
(§5) Patients enrolled in PROPEL were randomized 2:1 so that for every two patients randomized to be treated with AT-GAA, one was randomized to be treated with alglucosidase alfa.
The test system of series [5] is subjects with late-onset Pompe disease (LOPD). Conditions: cited from earlier work.
The test system of series [6] is adult subjects with late-onset Pompe disease (LOPD). The series can be described thus: ATB200-03 (PROPEL) phase 3 trial. The note with it: for absolute decline in percent-predicted FVC: 52 weeks; for mean change in total GSGC score: baseline to week 52, overall population.
Text: as §1, §2, §3, §4, §5

The values that follow come from patent publication US20260207718A1, “METHODS FOR TREATING LATE ONSET POMPE DISEASE IN PEDIATRIC PATIENTS” (Amicus Therapeutics, Inc., priority 2022, published 2026).

Chain of CIMPR (P11717 41-2491, species assumed): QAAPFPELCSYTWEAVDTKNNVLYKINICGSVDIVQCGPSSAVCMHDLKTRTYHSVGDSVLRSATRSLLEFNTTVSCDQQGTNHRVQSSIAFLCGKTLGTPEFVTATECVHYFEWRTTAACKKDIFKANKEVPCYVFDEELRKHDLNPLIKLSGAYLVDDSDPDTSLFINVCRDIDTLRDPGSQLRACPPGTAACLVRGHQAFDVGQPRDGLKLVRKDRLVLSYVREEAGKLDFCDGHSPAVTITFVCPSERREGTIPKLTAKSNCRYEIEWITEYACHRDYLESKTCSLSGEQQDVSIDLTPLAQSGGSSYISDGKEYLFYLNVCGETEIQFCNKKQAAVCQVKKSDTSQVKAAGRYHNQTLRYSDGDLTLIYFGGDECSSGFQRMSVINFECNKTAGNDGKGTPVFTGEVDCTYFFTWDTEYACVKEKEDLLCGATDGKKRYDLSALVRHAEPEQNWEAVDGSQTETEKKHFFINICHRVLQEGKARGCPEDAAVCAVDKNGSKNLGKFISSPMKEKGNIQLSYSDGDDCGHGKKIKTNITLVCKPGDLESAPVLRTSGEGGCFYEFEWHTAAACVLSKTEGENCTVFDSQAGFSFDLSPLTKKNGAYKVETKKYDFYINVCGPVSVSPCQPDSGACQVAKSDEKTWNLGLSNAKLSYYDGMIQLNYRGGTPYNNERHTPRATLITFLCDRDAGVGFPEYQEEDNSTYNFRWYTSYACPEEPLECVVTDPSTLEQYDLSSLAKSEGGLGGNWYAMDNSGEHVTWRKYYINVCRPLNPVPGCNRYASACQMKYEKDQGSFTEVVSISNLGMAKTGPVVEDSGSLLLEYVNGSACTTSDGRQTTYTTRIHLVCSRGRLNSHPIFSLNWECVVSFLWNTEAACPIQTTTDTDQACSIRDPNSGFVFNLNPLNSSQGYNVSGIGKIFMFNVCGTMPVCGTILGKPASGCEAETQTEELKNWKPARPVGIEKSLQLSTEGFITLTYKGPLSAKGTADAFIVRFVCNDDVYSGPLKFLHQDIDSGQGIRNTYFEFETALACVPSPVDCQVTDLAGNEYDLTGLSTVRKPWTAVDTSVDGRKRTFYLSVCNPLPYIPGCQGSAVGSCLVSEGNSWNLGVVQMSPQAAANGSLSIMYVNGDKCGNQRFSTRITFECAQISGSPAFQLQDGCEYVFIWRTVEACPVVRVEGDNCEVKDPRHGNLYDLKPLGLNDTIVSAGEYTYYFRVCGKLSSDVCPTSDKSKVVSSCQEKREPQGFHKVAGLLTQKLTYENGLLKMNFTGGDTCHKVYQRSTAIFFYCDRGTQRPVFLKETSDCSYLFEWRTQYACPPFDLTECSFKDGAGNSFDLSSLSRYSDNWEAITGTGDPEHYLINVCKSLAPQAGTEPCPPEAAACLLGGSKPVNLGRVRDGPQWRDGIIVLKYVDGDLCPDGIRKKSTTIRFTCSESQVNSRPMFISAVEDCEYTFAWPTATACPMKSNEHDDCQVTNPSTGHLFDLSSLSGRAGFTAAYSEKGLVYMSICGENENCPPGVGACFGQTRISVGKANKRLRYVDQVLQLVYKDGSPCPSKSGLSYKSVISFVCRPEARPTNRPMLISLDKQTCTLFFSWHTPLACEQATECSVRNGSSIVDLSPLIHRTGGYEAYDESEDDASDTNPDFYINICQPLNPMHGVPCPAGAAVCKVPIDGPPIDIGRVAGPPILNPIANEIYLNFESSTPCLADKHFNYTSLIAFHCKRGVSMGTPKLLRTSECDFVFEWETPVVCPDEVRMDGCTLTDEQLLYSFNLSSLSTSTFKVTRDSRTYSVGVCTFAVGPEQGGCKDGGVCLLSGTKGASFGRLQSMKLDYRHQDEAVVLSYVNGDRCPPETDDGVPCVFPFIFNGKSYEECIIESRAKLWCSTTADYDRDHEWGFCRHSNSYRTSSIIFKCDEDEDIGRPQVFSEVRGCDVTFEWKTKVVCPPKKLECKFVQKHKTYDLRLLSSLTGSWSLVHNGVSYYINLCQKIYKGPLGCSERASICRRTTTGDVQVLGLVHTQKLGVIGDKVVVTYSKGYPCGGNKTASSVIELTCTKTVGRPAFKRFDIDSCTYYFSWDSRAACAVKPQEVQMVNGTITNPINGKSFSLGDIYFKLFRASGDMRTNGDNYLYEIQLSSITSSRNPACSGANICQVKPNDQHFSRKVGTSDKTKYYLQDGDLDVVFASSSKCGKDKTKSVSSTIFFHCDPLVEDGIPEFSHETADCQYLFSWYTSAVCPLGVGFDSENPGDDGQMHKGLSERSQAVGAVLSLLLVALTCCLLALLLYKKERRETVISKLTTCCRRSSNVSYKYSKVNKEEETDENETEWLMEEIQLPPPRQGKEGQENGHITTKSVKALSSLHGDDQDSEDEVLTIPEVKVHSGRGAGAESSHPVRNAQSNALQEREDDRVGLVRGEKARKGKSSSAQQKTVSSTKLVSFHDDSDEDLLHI

Turning to “MYOZYME®: conventional rhGAA product containing alglucosidase alfa (Sanofi Genzyme)”, in the series with CIMPR, the “rhGAA that bound to the CIMPR” value was 27% and the “rhGAA that did not bind to the CIMPR (fraction of total enzyme)” value was found to be 73%. The “lysosome size and autophagic buildup compared to vehicle-treated mice” value in the series on Gaa KO mice [1] (FIG. 17) was “did not show any significant difference”. Moreover, the 6MWT in the series with pediatric LOPD patient is on record as 44.2 m.
alglucosidase alfa: the “LC3 II level (western blot) / effect on autophagy” value in the series with Gaa KO mice [2] was “modest”. For the same substance, the “Fibers with Autophagy Buildup” value in the series on Gaa KO mice [1] is reported as greater than 90%. Moreover, the “Fibers with Normal or Near-normal Appearance” value in the series on Gaa KO mice [1] is given as less than 10%. In series [3], the “relative effect for 6MWT and FVC” value is on record as “numerically favourable versus placebo”. Moreover, the “participants with infusion/injection associated reactions (IARs)” value in series [4] was 26%. The “patients who discontinued treatment due to an adverse event” value in series [4] amounted to 2.6%. For the same substance, the “subjects who did not show an initial improvement during treatment” value in series [5] (368 subjects with LOPD from published studies) is recorded as greater than 30%. In series [5] (longer-term studies), the “duration of improvements in initial responders” value is on record as “approximately 2 years”. Further, the “absolute decline in percent-predicted FVC” value in series [6] (ERT switch patients) and in series [6] (combined population) was 4.0% throughout. The results for the “FVC, CFBL at Week 52” value in series [6] (ERT switch population), in series [6] (ERT treatment naive population) and in series [6] (overall population) were −4.0 % predicted, −3.6 % predicted and −4.0 % predicted, respectively. Moreover, the “6MWD, CFBL at Week 52” value was 0.0 m in series [6] (ERT switch population (n=95)); 38 m in series [6] (ERT treatment naive population); “+38.3 m” in series [6] (ERT treatment naive population, listed as Alglucosidase alfa); 7 m in series [6] (overall ERT switch and ERT naïve population); “+7.2 m” in series [6] (overall ERT switch and ERT naïve population, listed as Alglucosidase alfa). For the same substance, in series [6] (ERT-experienced patients, Week 52 (baseline 4.6 ATB200/miglustat, 7.2 alglucosidase alfa with placebo)), the “mean urinary Glc4 concentration” value came out at 9.1 mmol/mol. For the same substance, in series [6] (after 52 weeks), the “mean change in CK (creatine kinase)” value is “+15.6%”. In addition, the “mean change (SD) in MMT score for lower extremities” value in series [6] (baseline to week 52) was 0.9 (2.58). Besides, the “mean change in total GSGC score” value in series [6] is reported as “worsening”; in series [6] (listed as alglucosidase alfa and placebo), 0.77 (1.8). The “mean change of urine Hex-4” value in series [6] (combined population, after 52 weeks) is listed as “+11.0%”.
